From ChEMBL document CHEMBL3046581, “Synthesis and cytotoxic activity of diaryl urea derivatives with a 4-methylpiperazinylcarbonyl moiety” (Med Chem Res, 2013)

Experiments:
A549 [1] = assay: Cytotoxicity against Homo sapiens (human) A549 cells assessed as growth inhibition at 100 uM after 48 hr by MTT assay; type: functional; settings: A549, 48 h, read-out: GI
PC-3 [2] = assay: Cytotoxicity against Homo sapiens (human) PC3 cells assessed as growth inhibition at 100 uM after 48 hr by MTT assay; type: functional; settings: PC-3, 48 h, read-out: GI
A549 [3] = assay: Cytotoxicity against Homo sapiens (human) A549 cells assessed as growth inhibition after 48 hr by MTT assay; type: functional, cell-based; settings: for IC50: Homo sapiens, A549, 48 h
PC-3 [4] = assay: Cytotoxicity against Homo sapiens (human) PC3 cells assessed as growth inhibition after 48 hr by MTT assay; type: functional

Row | Compound | inhibition of growth at 100 µM (A549 [1]) [%] | inhibition of growth at 100 µM (PC-3 [2]) [%] | IC50 (A549 [3]) [µM] | growth inhibition (GI) (A549 [3]) | growth inhibition (GI) (A549 [3]; record 2) [%] | growth inhibition (GI) (PC-3 [4]) [%]
1 | C#Cc1cccc(NC(=O)Nc2ccc(C(=O)N3CCN(C)CC3)cc2)c1 | 45.4 | 49.3 |  |  |  | 
2 | COc1cc(NC(=O)Nc2ccc(C(=O)N3CCN(C)CC3)cc2)cc(OC)c1 | 28.6 | 40 |  |  |  | 
3 | CN1CCN(C(=O)c2ccc(NC(=O)Nc3ccc(F)c(F)c3)cc2)CC1 | 43.1 | 27.6 |  |  |  | 
4 | CN1CCN(C(=O)c2ccc(NC(=O)Nc3ccc(Cl)c(Cl)c3)cc2)CC1 | 36.5 | 28 |  |  |  | 
5 | CN1CCN(C(=O)c2ccc(NC(=O)Nc3ccc(F)c(Cl)c3)cc2)CC1 | 28.4 | 29.9 |  |  |  | 
6 | CN1CCN(C(=O)c2ccc(NC(=O)Nc3cccc(C(F)(F)F)c3)cc2)CC1 | 21.2 | 37.1 |  |  |  | 
7 | CN1CCN(C(=O)c2ccc(NC(=O)Nc3ccc(OCc4cccc(F)c4)c(Cl)c3)cc2)CC1 | 74 | 82.7 | 10.8 |  |  | 
8 | CN1CCN(C(=O)c2ccc(NC(=O)Nc3cccc(C(=O)N4CCCCC4)c3)cc2)CC1 | 19.7 | 31.1 |  |  |  | 
9 | CNC(=O)c1cc(Oc2ccc(NC(=O)Nc3ccc(Cl)c(C(F)(F)F)c3)cc2)ccn1 [SORAFENIB] |  |  | 6.08 | Dose-dependent effect | 94.8 | 91.4
10 | CN1CCN(C(=O)c2ccc(NC(=O)Nc3ccc(Cl)c(C(F)(F)F)c3)cc2)CC1 | 22.6 | 25.5 |  |  |  | 
11 | Cc1cc(NC(=O)Nc2ccc(C(=O)N3CCN(C)CC3)cc2)ccc1Cl | 27.5 | 35.1 |  |  |  | 
12 | CC(=O)Nc1nc2ccc(NC(=O)Nc3ccc(C(=O)N4CCN(C)CC4)cc3)cc2s1 | 93.5 |  | 0.57 | Dose-dependent effect |  | 
